“Also recorded” adds a separate entry of the source. Read-outs that look alike come from different tables or passages of the source.
Tests used:
IL10−/− mice = assay: IL10−/− model of murine colitis; type: in vivo, mouse
Procedure: IL10−/− and WT mice on the C57BL/6 background are monitored for body weight every other day. IL10−/− mice begins to manifest symptoms of colitis by 4 weeks of age compared with WT mice, including diarrhea and weight loss greater than 5%. Treatment protocols are initiated when the mice are between 14-18 weeks of age.
By 14−18 weeks of age, IL10−/− mice develop sufficiently severe symptoms of disease to being testing therapeutic treatments. For four weeks, mice are treated weekly with Intraperitoneal (I.P.) anti-TL1a injection and daily with oral FTY720 (S1PR inhibitor, anti-S1PR) according to Table 61. Group 1 serves as the naïve control and Group 2 is treated with isotype and vehicle controls. Groups 3 and 4 test the high dose of either TL1a or S1PR blockade, respectively. Groups 5 and 6 test the low dose of either TL1a or S1PR blockade. Groups 7 and 8 test the high and low dose combination therapies, respectively.
(§1) At day 28 after initiation of treatment, mice are anaesthetized and bled by cardiac puncture. Blood is kept on ice for 30 minutes and then spun down to separate the serum, which is stored at −80 C for cytokine measurement by MSD. After the terminal bleed, mice are euthanized by CO2 overdose per IACUC guidelines. Colons are harvested for each mouse and measured for length and weight. 1 cm of the middle colon is collected into RNAlater, and kept at room temperature for 2 hours prior to freezing at −80 C. The colonic tissue preserved in RNAlater is processed for mRNA and subjected to bulk RNA sequencing and standard differential gene expression analysis. The remainder of the proximal and distal colon is preserved in 10% NBF at room temperature for 48 hours prior to moving to 70% ethanol. These preserved colonic tissues are sectioned and stained by H&E prior to analysis by a veterinary pathologist for clinical signs of colitis.

[1] = tested on: Rag2−/− mice receiving CD4+CD45RB+ T cells; assay: T cell transfer model of murine colitis; type: in vivo, mouse
Text: The murine T cell transfer model of colitis is used to test the synergistic effect of blocking TL1A and S1P on the development of colitis using a mouse-specific TL1A antibody (anti-TL1A) and S1PR functional antagonist (FTY720). To initiate colitis, CD4+CD45RB+ T cells from the spleens of C57BL/6 mice are sorted to >95% purity and transferred by I.V. injection to Rag2−/− mice lacking mature B and T cells (0.5e6 cells/mouse), which are then randomized by weight on day 0. Mice are weighed and monitored for signs of disease every other day for 7 weeks.
One day prior to the initiation of disease (day-1) and weekly throughout the course of the experiment, mice are treated with a single I.P. injection of anti-TL1A in 0.2 ml total volume according to Table 64. In addition, FTY720 or the appropriate vehicle control is orally dosed daily according to Table 64. Group 1 serve as the naïve control and Group 2 is treated with isotype control antibodies. Groups 3 and 4 test the high dose of either anti-TL1A or FTY720, respectively. Groups 5 and 6 test the low dose of either anti-TL1A or FTY720. Groups 7 and 8 test the high and low dose combination therapies, respectively.
as §1, with “49” for “28”, “disease induction with CD4+CD45RB+ T cell transfer,” for “initiation of treatment,”, “and” for “and standard”, “These preserved colonic tissues are sectioned and stained by H&E prior to analysis by a veterinary pathologist for clinical signs of colitis.” left out

S1P1 [2] = molecular target: T1, S1P1 (Homo sapiens, UniProt P21453); conditions: cited from earlier work
T1 sequence (P21453 whole entry, species assumed): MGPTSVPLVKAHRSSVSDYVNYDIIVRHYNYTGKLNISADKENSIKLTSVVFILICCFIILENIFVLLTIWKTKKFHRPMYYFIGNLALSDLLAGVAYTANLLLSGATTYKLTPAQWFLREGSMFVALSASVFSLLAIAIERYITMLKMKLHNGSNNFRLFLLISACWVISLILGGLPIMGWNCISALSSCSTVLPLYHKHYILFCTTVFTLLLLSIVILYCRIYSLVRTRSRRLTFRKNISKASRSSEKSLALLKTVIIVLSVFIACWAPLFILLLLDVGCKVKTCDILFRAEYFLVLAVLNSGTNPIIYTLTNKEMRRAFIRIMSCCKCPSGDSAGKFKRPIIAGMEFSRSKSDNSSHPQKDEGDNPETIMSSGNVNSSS

peripheral lymphocytes = conditions: mice, 24 h after oral dosing; cited from earlier work
human whole blood = assay: Human cytokine release assay, whole blood; type: cell-based
S1P1 [3] = molecular target: T1, S1P1; conditions: read-out: ED50 value, agonistic activity on S1P1; cited from earlier work
S1P3 [4] = molecular target: T2, S1P3 (Homo sapiens, UniProt Q99500); conditions: read-out: ED50 value on S1P3; cited from earlier work
Target sequence in this assay (Q99500 whole entry, species assumed): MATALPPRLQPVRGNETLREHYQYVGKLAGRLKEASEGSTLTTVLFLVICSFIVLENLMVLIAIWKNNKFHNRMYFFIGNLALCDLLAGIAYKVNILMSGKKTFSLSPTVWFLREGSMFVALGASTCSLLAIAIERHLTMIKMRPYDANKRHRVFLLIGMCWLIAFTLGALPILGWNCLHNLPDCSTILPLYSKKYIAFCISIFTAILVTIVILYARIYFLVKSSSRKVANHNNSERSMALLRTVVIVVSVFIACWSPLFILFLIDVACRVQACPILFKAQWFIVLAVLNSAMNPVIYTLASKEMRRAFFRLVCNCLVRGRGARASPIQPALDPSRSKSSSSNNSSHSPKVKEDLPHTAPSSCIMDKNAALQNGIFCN

[5] = molecular target: sphingosine-1-phosphate receptor 1 (S1P1) (Homo sapiens, UniProt P21453); conditions: binding; cited from earlier work
Chain of sphingosine-1-phosphate receptor 1 (S1P1) (P21453 whole entry, species assumed): as the sequence (P21453 whole entry, species assumed) above

S1P4 [6] = molecular target: T3, S1P4 (Homo sapiens, UniProt O95977); conditions: cited from earlier work
T3 sequence (O95977 1-384): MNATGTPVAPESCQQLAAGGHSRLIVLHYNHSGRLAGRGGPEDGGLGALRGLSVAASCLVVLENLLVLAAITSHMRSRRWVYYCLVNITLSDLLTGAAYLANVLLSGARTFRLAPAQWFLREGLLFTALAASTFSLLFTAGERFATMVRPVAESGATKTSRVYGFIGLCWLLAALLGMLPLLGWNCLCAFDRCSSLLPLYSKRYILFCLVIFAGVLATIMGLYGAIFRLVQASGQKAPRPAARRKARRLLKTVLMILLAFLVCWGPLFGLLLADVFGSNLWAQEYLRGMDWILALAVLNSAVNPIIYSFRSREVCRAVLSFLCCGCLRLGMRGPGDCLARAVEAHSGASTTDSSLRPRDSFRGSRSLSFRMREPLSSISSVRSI

S1P2 = S1P2 (Homo sapiens, UniProt O95136); conditions: cited from earlier work
Chain of S1P2 (O95136 whole entry, species assumed): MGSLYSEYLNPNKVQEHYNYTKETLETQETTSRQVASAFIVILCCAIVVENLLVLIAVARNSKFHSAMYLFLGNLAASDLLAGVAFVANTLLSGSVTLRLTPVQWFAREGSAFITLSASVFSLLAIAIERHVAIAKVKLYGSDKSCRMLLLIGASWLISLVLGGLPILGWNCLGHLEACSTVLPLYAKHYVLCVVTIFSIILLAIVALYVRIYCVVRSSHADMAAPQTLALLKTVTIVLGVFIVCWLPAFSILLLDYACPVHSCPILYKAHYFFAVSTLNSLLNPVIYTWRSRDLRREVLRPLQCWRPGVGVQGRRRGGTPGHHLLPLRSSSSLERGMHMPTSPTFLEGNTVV

S1P3 [7] = molecular target: T2, S1P3; conditions: cited from earlier work
Target sequence in this assay (Q99500 whole entry, species assumed): as the sequence (Q99500 whole entry, species assumed) above

[8] = molecular target: recombinant mouse S1P1 receptors (Mus musculus, UniProt O08530); conditions: read-out: EC50, agonist of S1P1 receptors; cited from earlier work
Chain of recombinant mouse S1P1 receptors (O08530 whole entry): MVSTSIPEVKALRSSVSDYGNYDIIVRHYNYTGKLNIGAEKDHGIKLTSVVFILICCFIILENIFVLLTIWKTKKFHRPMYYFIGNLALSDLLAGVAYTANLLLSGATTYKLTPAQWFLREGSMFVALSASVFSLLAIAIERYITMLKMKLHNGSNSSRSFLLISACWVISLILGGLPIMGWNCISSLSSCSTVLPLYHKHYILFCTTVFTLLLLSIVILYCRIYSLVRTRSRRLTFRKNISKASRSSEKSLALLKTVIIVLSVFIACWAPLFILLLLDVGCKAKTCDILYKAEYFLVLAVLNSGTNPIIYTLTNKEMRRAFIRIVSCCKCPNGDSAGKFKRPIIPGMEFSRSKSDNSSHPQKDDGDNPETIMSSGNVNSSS

[9] = molecular target: recombinant dog S1P1 receptors; conditions: read-out: EC50, agonist of S1P1 receptors; cited from earlier work
[10] = molecular target: recombinant monkey S1P1 receptors; conditions: read-out: EC50, agonist of S1P1 receptors; cited from earlier work
S1P4 [11] = molecular target: T3, S1P4; conditions: cited from earlier work; remark: listed apart in the source
human S1P5 = human S1P5 (Homo sapiens, UniProt Q9H228); conditions: cited from earlier work
Chain of human S1P5 (Q9H228 whole entry): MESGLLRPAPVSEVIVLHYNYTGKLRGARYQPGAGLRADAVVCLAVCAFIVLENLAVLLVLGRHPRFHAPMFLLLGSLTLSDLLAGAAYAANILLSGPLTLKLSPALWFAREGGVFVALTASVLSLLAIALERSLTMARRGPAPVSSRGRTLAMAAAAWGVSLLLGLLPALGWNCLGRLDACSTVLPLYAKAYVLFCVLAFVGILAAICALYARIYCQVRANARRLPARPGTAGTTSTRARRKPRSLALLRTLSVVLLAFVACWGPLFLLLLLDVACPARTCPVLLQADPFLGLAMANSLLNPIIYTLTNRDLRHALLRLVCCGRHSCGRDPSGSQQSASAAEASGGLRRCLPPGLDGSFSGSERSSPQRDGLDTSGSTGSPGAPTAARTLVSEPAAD

[12] = molecular target: human Sphingosine-1-phosphate receptor 2 (S1P2 or S1PR2) (Homo sapiens, UniProt O95136); conditions: cited from earlier work
Chain of human Sphingosine-1-phosphate receptor 2 (S1P2 or S1PR2) (O95136 whole entry): as the sequence (O95136 whole entry, species assumed) above

S1P3 [13] = molecular target: T2, S1P3; conditions: cited from earlier work; remark: listed apart in the source
Target sequence in this assay (Q99500 whole entry): as the sequence (Q99500 whole entry, species assumed) above

[14] = tested on: CD20-expressing Raji cell; assay: CDC positive control with Rituxan; type: cell-based, human
Procedure: Test articles were evaluated for CDC activity, compared to negative control Human IgG4 isotype control, on TL1A-expressing HEK293 target cells. Rituxan (anti-CD20) was used as a positive technical control on CD20-expressing Raji cell. All test articles were used at a final top concentration of 10 μg/mL followed by a five-fold dilution series (7 points total), in addition to a no treatment control, in triplicate. Cells were incubated with test articles for 15 minutes at 37 C, then treated with human complement, at a final concentration of 25%, for 3 hours at 37 C, 5% CO2. Following incubation, cells were washed and resuspended in Propidium Iodide (P.I.) at a final concentration of 5 μg/mL prior to flow cytometry analysis. Total cells were examined by flow cytometry during sample acquisition. Data were plotted on an XY chart, graphing percentage P.I. positive cells against the log of the concentration and fit to a non-linear regression curve. Cell cytotoxicity in the presence of all test articles was not distinguishable from cell cytotoxicity in the presence of isotype control (Table 12).

S1P1 [15] = molecular target: T1, S1P1; conditions: cited from earlier work; remark: listed apart in the source
S1P3 [16] = molecular target: T2, S1P3; conditions: cited from earlier work; remark: listed apart in the source
Target sequence in this assay (Q99500 whole entry, species assumed): as above

CCCCCCCCc1ccc(CCC(N)(CO)CO)cc1 [FTY720]
disease per histopathology (IL10−/− mice; colonic tissue): reduces disease per histopathology in a dose dependent manner | serum inflammatory cytokines (MSD) (IL10−/− mice; mouse, in vivo): Reduced levels of inflammatory cytokines | body weight loss (IL10−/− mice; single agents, Groups 3-6): alleviates body weight loss in a dose-dependent manner | disease per histopathology ([1]; colonic tissue): reduces disease per histopathology in a dose dependent manner | serum inflammatory cytokines (MSD) ([1]; mouse, in vivo): Reduced levels of inflammatory cytokines | body weight loss ([1]; single agents, Groups 3-6): alleviates body weight loss in a dose-dependent manner

CCCc1ccc(COc2ccc3c(c2)CCC(CN2CC(C(=O)O)C2)=C3C)c(OC)c1 [ceralifimod, 1-({6-[(2-methoxy-4-propylbenzyl)oxy]-1-methyl-3,4-dihydronaphthalen-2-yl}methyl) azetidine-3-carboxylic acid]
selectivity for S1P1 over S1P3 (S1P1 [2]): > 30 000 fold | ED50, peripheral lymphocyte lowering (PLL) test (peripheral lymphocytes): 0.029 mg/kg

Staphylococcal enterotoxin B [SEB]
cytokine release (IL-2, IL-6, IL-10, TNF, IFN-γ) in whole blood (human whole blood): induced IL-2, IL-6, IL-10, TNF, and IFN-γ release

NC(CO)(CO)CCc1ccc(Sc2cccc(OCc3ccccc3)c2)cc1Cl [mocravimod, 2-amino-2-{2-[4-(3-benzyloxyphenylthio)-2-chlorophenyl]ethyl}-1,3-propanediol]
EC50 (S1P1 [3]): 0.84 nM | EC50 (S1P3 [4]): > 1000 nM | selectivity for S1P1 over S1P2 and S1P5 [5]: 100 fold

CCCCCCCOc1ccc(CCC(N)(CO)CO)cc1C(F)(F)F [amiselimod, 2-amino-2-{2-[4-(heptyloxy)-3-(trifluoromethyl)phenyl]ethyl}propan-1,3-diol]
agonist activity for S1P4 (S1P4 [6]): minimal agonist activity | agonist activity for S1P2 (S1P2): no distinct agonist activity | agonist activity for S1P3 (S1P3 [7]): no distinct agonist activity

O=C(O)C[C@H]1CCc2c1[nH]c1ccc(OCc3ccc(C4CCCC4)c(C(F)(F)F)c3)cc21 [etrasimod, (R)-2-(7-(4-cyclopentyl-3-(trifluoromethyl)benzyloxy)-1,2,3,4-tetrahydrocyclopenta[b]indol-3-yl) acetic acid]
EC50 [8]: 3.65 nM | EC50 [9]: 4.19 nM | EC50 [10]: 8.7 nM | relative efficacy, % of S1P response (S1P4 [11]): 63% | relative efficacy, % of S1P response (human S1P5): 73% | agonist or antagonist activity [12]: neither agonist nor antagonist activity was observed | agonist or antagonist activity (S1P3 [13]): neither agonist nor antagonist activity was observed

Rituxan: anti-CD20 antibody, positive control in the CDC assay
CDC bioactivity / complement-mediated lysis [14]: CDC bioactivity was observed; also recorded: expected increase in complement-mediated lysis

CCC/N=C1\S/C(=C\c2ccc(OC[C@H](O)CO)c(Cl)c2)C(=O)N1c1ccccc1C [ponesimod, (2Z,5Z)-5-[3-chloro-4-[(2R)-2,3-dihydroxypropoxy]benzylidene]-3-(2-methylphenyl)-2-(propylimino)-1,3-thiazolidin-4-one]
S1P1 selectivity, higher compared with the natural ligand (S1P1 [15]; S1P1 versus S1P3): approximately 650 fold | potency for S1P1, higher compared with the natural ligand (S1P1 [15]; compared with the natural ligand): 4.4 | EC50 (S1P1 [15]; read-out: half maximal effective concentration (EC50), S1P1 activation): 5.7 nM | potency for S1P3, lower compared with the natural ligand (S1P3 [16]): 150 fold

Reference: US20260216326A1, “METHODS OF TREATING INFLAMMATORY DISEASES WITH COMBINATION OF TL1A INHIBITORS AND S1PR INHIBITORS” (Prometheus Biosciences, Inc., priority 2022, published 2026)
